Laboratory results published in the CheMixHub viscosity set.
Several values for one entry are separate records, joined by “and”; a condition that tells them apart may be missing. Identical values can stand only once.

Experiment: xn = mol fraction of the nth substance listed

C=CC(=O)OC + CO
viscosity [mPa·s], 101.33 kPa
Settings	308.15 K	318.15 K
x1 = 0.0546	0.464	0.419
x1 = 0.157	0.443	0.412
x1 = 0.2569	0.426	0.404
x1 = 0.3537	0.413	0.397
x1 = 0.453	0.403	0.388
x1 = 0.501	0.399	0.384
x1 = 0.5588	0.394	0.379
x1 = 0.655	0.39	0.369
x1 = 0.7566	0.387	0.359
x1 = 0.8561	0.387	0.349
x1 = 0.9556	0.389	0.338

O=C1OCCO1 + COC(=O)OC
viscosity [mPa·s], 101.3 kPa
Settings	x2 = 0.0802	x2 = 0.166	x2 = 0.2441	x2 = 0.3467	x2 = 0.4421	x2 = 0.5442	x2 = 0.6512	x2 = 0.761	x2 = 0.8513
298.15 K	2.043	1.83	1.656	1.452	1.285	1.127	0.983	0.854	0.761
313.15 K	1.688	1.506	1.357	1.184	1.042	0.91	0.789	0.682	0.604

CC(C)CO + COC(C)(C)C
298.15 K, 101 kPa
Settings	viscosity [mPa·s]
x2 = 0.1007	2.39
x2 = 0.2009	1.72
x2 = 0.2996	1.27
x2 = 0.3951	0.987
x2 = 0.502	0.776
x2 = 0.6038	0.637
x2 = 0.7002	0.536
x2 = 0.8022	0.449
x2 = 0.9008	0.385

CC1=CCC2CC1C2(C)C (centres undefined) + COC(C)(C)C
298.15 K, 101.33 kPa
Settings	viscosity [mPa·s]
x2 = 0.0598	1.196
x2 = 0.128	1.091
x2 = 0.2151	0.9713
x2 = 0.357	0.8048
x2 = 0.4839	0.6762
x2 = 0.5691	0.603
x2 = 0.6514	0.5379
x2 = 0.7236	0.4866
x2 = 0.8254	0.4221
x2 = 0.9034	0.379
x2 = 0.9583	0.3576

CCCCCOC(C)=O + COc1ccccc1
Settings	viscosity [mPa·s]
298.15 K, 101 kPa, x2 = 0.5	0.8265

ClCC(Cl)Cl + COc1ccccc1N
viscosity [mPa·s], 100 kPa
Settings	x2 = 0.0884	x2 = 0.1905	x2 = 0.2923	x2 = 0.4076	x2 = 0.5076	x2 = 0.5945	x2 = 0.7016	x2 = 0.8104	x2 = 0.9023
303.15 K	1.376	1.786	2.192	2.647	3.038	3.376	3.789	4.204	4.554
308.15 K	1.291	1.676	2.055	2.478	2.841	3.154	3.535	3.918	4.236
313.15 K	1.204	1.566	1.916	2.307	2.641	2.929	3.279	3.629	3.918

C1CCC2=[NH+]CCCN2CC1.c1nc[n-]n1 + CS(C)=O
303.15 K, 100 kPa
Settings	viscosity [mPa·s]
x1 = 0.1001	3.86
x1 = 0.2	7.19
x1 = 0.2999	12.29
x1 = 0.4003	22.17
x1 = 0.4989	39.73
x1 = 0.6002	77.3
x1 = 0.7008	152.3
x1 = 0.7993	309.9
x1 = 0.9002	586.4

CC(C)CO + CS(C)=O
viscosity [mPa·s], 101.3 kPa
Settings	x2 = 0.0944	x2 = 0.1917	x2 = 0.289	x2 = 0.3884	x2 = 0.4863	x2 = 0.5874	x2 = 0.6887	x2 = 0.7913	x2 = 0.8951
298.15 K	2.785	2.366	2.056	1.934	1.879	1.853	1.858	1.891	1.918
303.15 K	2.424	2.071	1.847	1.754	1.703	–	1.686	1.693	1.733

O=C1OCCO1 + CS(C)=O
313.15 K, 101.33 kPa
Settings	viscosity [mPa·s]
x2 = 0.0721	1.862
x2 = 0.1744	1.786
x2 = 0.2849	1.709
x2 = 0.3698	1.656
x2 = 0.469	1.611
x2 = 0.5668	1.571
x2 = 0.6744	1.538
x2 = 0.7969	1.515
x2 = 0.8782	1.51
x2 = 0.9732	1.511

Cc1ccccc1O + C[N+](C)(C)CCO.[Cl-]
298.15 K, 101.33 kPa
Settings	viscosity
x1 = 0.7	137.1 mPa·s
x1 = 0.8	73.25 mPa·s and 56.18 mPa·s and 47.22 mPa·s
x1 = 0.9	38.19 mPa·s

O=C(O)C(=O)O + C[N+](C)(C)CCO.[Cl-]
viscosity [mPa·s], x2 = 0.5
Settings	293.15 K	293.2 K	298.15 K	303.2 K	308.15 K	313.2 K	318.15 K
100 kPa	15680	–	8953	–	3332	–	1421
101.3 kPa	–	7595	–	4359	–	2174	–

O=C(O)CO + C[N+](C)(C)CCO.[Cl-]
100 kPa, x2 = 0.5
Settings	viscosity [mPa·s]
293.15 K	779.4
298.15 K	547.9
303.15 K	394.8
308.15 K	290.6
313.15 K	218.6
318.15 K	167
323.15 K	130.1

CC(C)CO + Cc1ccc(C)cc1
308.15 K, 101 kPa
Settings	viscosity [mPa·s]
x1 = 0.0452	0.549
x1 = 0.1043	0.562
x1 = 0.1908	0.595
x1 = 0.3019	0.649
x1 = 0.3823	0.697
x1 = 0.4859	0.775
x1 = 0.6097	0.969
x1 = 0.7046	1.218
x1 = 0.8071	1.487
x1 = 0.8948	1.856
x1 = 0.9585	2.247

CCCCCOC(C)=O + Cc1ccc(O)cc1
Settings	viscosity [mPa·s]
298.15 K, 101 kPa, x2 = 0.5	1.169

Cc1ccccc1O + Cc1ccc(O)cc1
viscosity [mPa·s]
Settings	298.15 K	313.15 K	323.15 K
101 kPa, x1 = 0.1547	13.27	–	–
101 kPa, x1 = 0.2999	12	–	–
101 kPa, x1 = 0.3525	11.63	–	–
101 kPa, x1 = 0.4233	11.03	–	–
101 kPa, x1 = 0.5256	10.3	–	–
101 kPa, x1 = 0.6304	9.612	–	–
101 kPa, x1 = 0.7573	8.854	–	–
101 kPa, x1 = 0.875	8.209	–	–
101.3 kPa, x1 = 0.1	–	6.38	4.318
101.3 kPa, x1 = 0.2	–	6.086	4.147
101.3 kPa, x1 = 0.3	–	5.766	3.929
101.3 kPa, x1 = 0.4	–	5.425	3.727
101.3 kPa, x1 = 0.5	–	5.125	3.555
101.3 kPa, x1 = 0.6	–	4.847	3.401
101.3 kPa, x1 = 0.7	–	4.616	3.235
101.3 kPa, x1 = 0.8	–	4.435	3.112
101.3 kPa, x1 = 0.9	–	4.3	3.047
